Laboratory results reported in ChEMBL document CHEMBL3397033, “Bioactive benzofuran derivatives: moracins A-Z in medicinal chemistry” (Eur J Med Chem, 2015).
Values after ≈ are worked out from the molar mass of the structure shown.

How the values were obtained:
[1] = system: Escherichia coli; assay: Antimicrobial activity against Escherichia coli; assay type: functional
[2] = system: A2780; assay: Cytotoxicity against human A2780 cells after 96 hrs by MTT assay; assay type: functional, cell-based; conditions: A2780, 96 h
[3] = system: A549; assay: Cytotoxicity against human A549 cells after 96 hrs by MTT assay; assay type: functional, cell-based; conditions: A549, 96 h
[4] = system: Pseudomonas aeruginosa; assay: Antimicrobial activity against Pseudomonas aeruginosa; assay type: functional
[5] = system: Klebsiella pneumoniae; assay: Antimicrobial activity against Klebsiella pneumoniae; assay type: functional
[6] = Cytotoxicity against human BGC823 cells after 96 hrs by MTT assay; assay type: functional, cell-based; conditions: BGC-823, 96 h
[7] = Cytotoxicity against human Bel7402 cells after 96 hrs by MTT assay; assay type: functional, cell-based; conditions: Bel-7402, 96 h
[8] = Cytotoxicity against human HCT8 cells after 96 hrs by MTT assay; assay type: functional, cell-based; conditions: HCT-8, 96 h
[9] = Antifungal activity against Fusarium solani f. sp. mori; assay type: functional
[10] = Antifungal activity against Stigmina mori; assay type: functional
[11] = Antifungal activity against Diaporthe nomurai; assay type: functional
[12] = Antifungal activity against Fusarium lateritium f. sp. mori; assay type: functional
[13] = Antifungal activity against Fusarium roseum; assay type: functional
[14] = Antifungal activity against Cochliobolus miyabeanus; assay type: functional; conditions: Bipolaris oryzae
[15] = system: Rosellinia necatrix; assay: Antifungal activity against Rosellinia necatrix; assay type: functional
[16] = system: Bacillus subtilis; assay: Antimicrobial activity against Bacillus subtilis; assay type: functional
[17] = system: RAW264.7; assay: Antiinflammatory activity against mouse RAW264.7 cells assessed as reduction of IFNgamma-induced NO production; assay type: functional, cell-based
[18] = system: Staphylococcus aureus; assay: Antimicrobial activity against methicillin-sensitive Staphylococcus aureus; assay type: functional
[19] = system: Micrococcus luteus; assay: Antimicrobial activity against Micrococcus luteus; assay type: functional
[20] = biological target: Tyrosinase (Agaricus bisporus, UniProt O42713); assay: Inhibition of mushroom tyrosinase
Chain of Tyrosinase (O42713 whole entry): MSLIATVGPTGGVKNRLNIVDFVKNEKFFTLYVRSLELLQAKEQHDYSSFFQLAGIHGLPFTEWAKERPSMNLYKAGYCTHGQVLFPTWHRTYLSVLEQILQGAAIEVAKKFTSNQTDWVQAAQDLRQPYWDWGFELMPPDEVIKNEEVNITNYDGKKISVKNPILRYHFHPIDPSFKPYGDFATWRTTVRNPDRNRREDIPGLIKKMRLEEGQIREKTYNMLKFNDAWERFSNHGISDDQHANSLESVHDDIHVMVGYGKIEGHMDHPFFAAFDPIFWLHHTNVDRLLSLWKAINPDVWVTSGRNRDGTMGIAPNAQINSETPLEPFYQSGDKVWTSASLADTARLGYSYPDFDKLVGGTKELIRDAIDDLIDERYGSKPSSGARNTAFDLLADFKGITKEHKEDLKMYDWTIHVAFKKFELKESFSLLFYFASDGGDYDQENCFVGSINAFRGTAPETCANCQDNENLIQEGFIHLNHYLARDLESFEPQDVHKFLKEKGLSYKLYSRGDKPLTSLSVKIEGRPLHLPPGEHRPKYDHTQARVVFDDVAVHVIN

[21] = system: Staphylococcus aureus; assay: Antimicrobial activity against methicillin-resistant Staphylococcus aureus; assay type: functional
[22] = system: RAW264.7; assay: Antiinflammatory activity against mouse RAW264.7 cells assessed as reduction of LPS-induced NO production; assay type: functional, cell-based
[23] = Cytotoxicity against human Hep3B cells assessed as cell viability after 24 hrs by MTT assay; assay type: cell-based, Hep 3B2
[24] = Inhibition of alpha-glucosidase (unknown origin); set-up: species or system Homo sapiens
[25] = system: Escherichia coli; assay: Microbicidal activity against Escherichia coli by liquid microdilution assay; assay type: functional
[26] = system: Enterococcus faecalis; assay: Microbicidal activity against Streptococcus faecalis by liquid microdilution assay; assay type: functional
[27] = system: Citrobacter freundii; assay: Microbicidal activity against Citrobacter freundii by liquid microdilution assay; assay type: functional
[28] = Antioxidant activity assessed as DPPH radical scavenging activity measured as discoloration at 25 ug/ml; assay type: physicochemical
[29] = Antioxidant activity assessed as DPPH radical scavenging activity; assay type: physicochemical
[30] = system: Candida albicans; assay: Microbicidal activity against Candida albicans by liquid microdilution assay; assay type: functional
[31] = system: Staphylococcus aureus; assay: Antimicrobial activity against Staphylococcus aureus by liquid microdilution assay; assay type: functional
[32] = system: Citrobacter freundii; assay: Antimicrobial activity against Citrobacter freundii by liquid microdilution assay; assay type: functional
[33] = system: Shigella dysenteriae; assay: Microbicidal activity against Shigella dysenteriae by liquid microdilution assay; assay type: functional
[34] = system: Salmonella typhi; assay: Antimicrobial activity against Salmonella typhi by liquid microdilution assay; assay type: functional, Salmonella enterica subsp. enterica serovar Typhi; conditions: Salmonella enterica
[35] = system: Shigella dysenteriae; assay: Antimicrobial activity against Shigella dysenteriae by liquid microdilution assay; assay type: functional
[36] = Antioxidant activity assessed as DPPH radical scavenging activity measured as discoloration at 50 ug/ml; assay type: physicochemical
[37] = system: Candida albicans; assay: Antimicrobial activity against Candida albicans by liquid microdilution assay; assay type: functional
[38] = system: Bacillus cereus; assay: Microbicidal activity against Bacillus cereus by liquid microdilution assay; assay type: functional
[39] = Antioxidant activity assessed as DPPH radical scavenging activity measured as discoloration at 12.5 ug/ml; assay type: physicochemical
[40] = system: Pseudomonas aeruginosa; assay: Antimicrobial activity against Pseudomonas aeruginosa by liquid microdilution assay; assay type: functional
[41] = system: Microsporum audouinii; assay: Antimicrobial activity against Microsporum audouinii by liquid microdilution assay; assay type: functional
[42] = Antioxidant activity assessed as DPPH radical scavenging activity measured as discoloration at 100 ug/ml; assay type: physicochemical
[43] = system: Bacillus cereus; assay: Antimicrobial activity against Bacillus cereus by liquid microdilution assay; assay type: functional
[44] = system: Klebsiella pneumoniae; assay: Microbicidal activity against Klebsiella pneumoniae by liquid microdilution assay; assay type: functional
[45] = system: Salmonella typhi; assay: Microbicidal activity against Salmonella typhi by liquid microdilution assay; assay type: functional, Salmonella enterica subsp. enterica serovar Typhi; conditions: Salmonella enterica
[46] = system: Staphylococcus aureus; assay: Microbicidal activity against Staphylococcus aureus by liquid microdilution assay; assay type: functional
[47] = system: Klebsiella pneumoniae; assay: Antimicrobial activity against Klebsiella pneumoniae by liquid microdilution assay; assay type: functional
[48] = system: Enterococcus faecalis; assay: Antimicrobial activity against Streptococcus faecalis by liquid microdilution assay; assay type: functional
[49] = system: Escherichia coli; assay: Antimicrobial activity against Escherichia coli by liquid microdilution assay; assay type: functional
[50] = system: Microsporum audouinii; assay: Microbicidal activity against Microsporum audouinii by liquid microdilution assay; assay type: functional

Oc1cc(O)cc(-c2cc3cc4ccoc4cc3o2)c1
MIC [1]: > 100 µg/mL | IC50 [2]: 5.9 µg/mL (≈ 22.2 µM) | IC50 [3]: 7.3 µg/mL (≈ 27.4 µM) | MIC [4]: > 100 µg/mL | MIC [5]: > 100 µg/mL | IC50 [6]: 3.8 µg/mL (≈ 14.3 µM) | IC50 [7]: 5.9 µg/mL (≈ 22.2 µM) | IC50 [8]: 6.4 µg/mL (≈ 24 µM)

CC1(C)Oc2cc3oc(-c4cc(O)cc(O)c4)cc3cc2C(O)C1O (stereo unspecified)
MIC [1]: > 100 µg/mL | MIC [4]: > 100 µg/mL | MIC [5]: > 100 µg/mL

CC1=CCc2c(ccc3cc(-c4cc(O)cc(O)c4)oc23)OC1
MIC [9]: 500 µg/mL (≈ 1620 µM) | MIC [1]: > 100 µg/mL | MIC [10]: 50 µg/mL (≈ 162 µM) | MIC [11]: 50 µg/mL (≈ 162 µM) | MIC [4]: > 100 µg/mL | MIC [12]: 500 µg/mL (≈ 1620 µM) | MIC [5]: > 100 µg/mL | MIC [13]: 15 µg/mL (≈ 48.6 µM) | MIC [14]: 50 µg/mL (≈ 162 µM) | MIC [15]: 15 µg/mL (≈ 48.6 µM)

CC1(C)C=Cc2c(c(O)cc3cc(-c4cc(O)cc(O)c4)oc23)O1
MIC [1]: > 100 µg/mL | MIC [4]: > 100 µg/mL | MIC [5]: > 100 µg/mL

CC1=CCc2c(c(O)cc3cc(-c4cc(O)cc(O)c4)oc23)OC1
MIC [1]: > 100 µg/mL | MIC [4]: > 100 µg/mL | MIC [5]: > 100 µg/mL

CC1(C)Oc2cc3oc(-c4cc(O)cc(O)c4)cc3cc2CC1O (stereo not drawn) [(+/-)-MORACIN P]
MIC [16]: 100 µg/mL (≈ 306 µM) | IC50 [17]: 19.3 µM | MIC [1]: > 100 µg/mL | MIC [18]: 50 µg/mL (≈ 153 µM) | MIC [19]: 100 µg/mL (≈ 306 µM) | IC50 [20]: 2.9 µM | MIC [21]: 100 µg/mL (≈ 306 µM) | IC50 [22]: 19.3 µM | MIC [4]: > 100 µg/mL | MIC [5]: > 100 µg/mL | IC50 [23]: > 30 µM

CC1(C)C=Cc2c(O)cc(-c3cc4ccc(O)cc4o3)cc2O1 [MORACIN D]
MIC [9]: 112 µg/mL (≈ 363 µM) | IC50 [24]: 2.54 µM | IC50 [17]: 18 µM | MIC [1]: > 100 µg/mL | MIC [10]: 56 µg/mL (≈ 182 µM) | MIC [11]: 7 µg/mL (≈ 22.7 µM) | IC50 [22]: 18 µM | MIC [4]: > 100 µg/mL | MIC [12]: 28 µg/mL (≈ 90.8 µM) | MIC [5]: > 100 µg/mL | MIC [13]: 7 µg/mL (≈ 22.7 µM) | MIC [14]: 14 µg/mL (≈ 45.4 µM) | MIC [15]: < 3.5 µg/mL

CC1(O)C=Cc2c(c(O)cc3cc(-c4cc(O)cc(O)c4)oc23)OC1 (stereo unspecified)
MBC [25]: 39 µg/mL (≈ 115 µM) | MBC [26]: 78 µg/mL (≈ 229 µM) | MBC [27]: 625 µg/mL (≈ 1840 µM) | Activity [28]: 42.09% | EC50 [29]: 6.08 µg/mL (≈ 17.9 µM) | MIC [1]: > 100 µg/mL | MFC [30]: 625 µg/mL (≈ 1840 µM) | MIC [31]: 156 µg/mL (≈ 458 µM) | MIC [32]: 312 µg/mL (≈ 917 µM) | MBC [33]: 156 µg/mL (≈ 458 µM) | MIC [34]: 39 µg/mL (≈ 115 µM) | MIC [35]: 78 µg/mL (≈ 229 µM) | Activity [36]: 49.98% | MIC [37]: 312 µg/mL (≈ 917 µM) | MBC [38]: 39 µg/mL (≈ 115 µM) | Activity [39]: 38.5% | MIC [40]: 625 µg/mL (≈ 1840 µM) | MIC [4]: > 100 µg/mL | MIC [5]: > 100 µg/mL | MIC [41]: 78 µg/mL (≈ 229 µM) | Activity [42]: 53.6% | MIC [43]: 10 µg/mL (≈ 29.4 µM) | MBC [44]: 312 µg/mL (≈ 917 µM) | MBC [45]: 78 µg/mL (≈ 229 µM) | MBC [46]: 312 µg/mL (≈ 917 µM) | MIC [47]: 156 µg/mL (≈ 458 µM) | MIC [48]: 20 µg/mL (≈ 58.8 µM) | MIC [49]: 10 µg/mL (≈ 29.4 µM) | MFC [50]: 312 µg/mL (≈ 917 µM)

CC1(C)C=Cc2c(cc(O)cc2-c2cc3ccc(O)cc3o2)O1
MIC [9]: 200 µg/mL (≈ 649 µM) | MIC [1]: > 100 µg/mL | MIC [10]: 200 µg/mL (≈ 649 µM) | MIC [11]: 15 µg/mL (≈ 48.6 µM) | MIC [4]: > 100 µg/mL | MIC [12]: 50 µg/mL (≈ 162 µM) | MIC [5]: > 100 µg/mL | MIC [13]: 15 µg/mL (≈ 48.6 µM) | MIC [14]: 100 µg/mL (≈ 324 µM) | MIC [15]: 15 µg/mL (≈ 48.6 µM)

O=Cc1cc2cc(-c3cc(O)cc(O)c3)oc2cc1O
MIC [1]: > 100 µg/mL | IC50 [2]: 6.9 µg/mL (≈ 25.5 µM) | IC50 [3]: > 10 µg/mL | MIC [4]: > 100 µg/mL | MIC [5]: > 100 µg/mL | IC50 [6]: 7.6 µg/mL (≈ 28.1 µM) | IC50 [7]: 6.8 µg/mL (≈ 25.2 µM) | IC50 [8]: 6.3 µg/mL (≈ 23.3 µM)

COc1cc2oc(-c3cc(O)cc(O)c3)cc2cc1CCC(C)(C)O
MIC [1]: > 100 µg/mL | MIC [4]: > 100 µg/mL | MIC [5]: > 100 µg/mL
